Data as given in patent US8354398B2, “Substituted isoxazole compounds” (Bristol-Myers Squibb Company, priority 2009, dated 2013).
Values belong to the compound of their own block, whether it stands above or below them.

Assays:
S1P3 [1] = target: T1, S1P3 (Homo sapiens, UniProt Q99500); test: Method B: Receptor [35S] GTPγS SPA Binding Assay, membranes from S1P3 transfected CHO cells; assay type: biochemical; parameters: expressed in transfected cells; host or cells: CHO cells; settings: S1P3 transfected CHO cell membranes, NC = a satisfactory dose response curve was not obtained
Procedure: (§1) Membranes prepared from S1P1 or S1P3 transfected CHO cells (2 μg protein) were incubated in 96-well white plates (CORNING® 3693) with test compounds diluted in DMSO, in 50 μl of reaction mixture containing 7.5 μl WGA-PVT beads (20 mg/ml), and 5 μM GDP, 20 mM HEPES pH 7.4, 100 mM NaCl, 1 mM EDTA, 5 mM MgCl2, 10 μg/ml saponin, 0.1% BSA, and 1 μM leupeptin. The assay was initiated with the addition of 25 μl of 0.2 nM [^35S]-GTPγS (1250 Ci/mmol; NEN) in assay buffer. After 90 min incubation at room temperature, spin the plate at 1000 rpm for 5 min. The bound radionuclides were measured at TOPCOUNT®, expressed as % response relative to S1P (1 μM) activation. Data was analyzed using the four parameter logistic equation in Excel. The four parameters in the equation, Y=A+((B−A)/(1+((EC50/X)^D))), are described as following: A is the Y value (agonist activity) at the bottom plateau; B is the Y value at the top plateau; EC50 is the X value (agonist concentration) when the response is halfway between bottom and top; D is Hill coefficient. Curves were not generated for compounds having Ymax values were below 50%.
(§2) Compounds of the present invention and Comparative Compound A were tested in the Receptor [^35S] GTPγS Binding Assays (Method A) and Receptor [35S] In some instances, the value is an average of multiple experiments where N is the number of experiments conducted that provided satisfactory dose response curves. When more than one batch of an example was tested, the value presented is from a batch which allowed a comparison of GTPγS S1P1 and GTPγS S1P3 in which the most number of experiments were performed. Preferably, the same batch was examined in Method A and Method B. Data was not averaged across different batches of an example compound.
Target sequence in this assay (Q99500 whole entry, species assumed): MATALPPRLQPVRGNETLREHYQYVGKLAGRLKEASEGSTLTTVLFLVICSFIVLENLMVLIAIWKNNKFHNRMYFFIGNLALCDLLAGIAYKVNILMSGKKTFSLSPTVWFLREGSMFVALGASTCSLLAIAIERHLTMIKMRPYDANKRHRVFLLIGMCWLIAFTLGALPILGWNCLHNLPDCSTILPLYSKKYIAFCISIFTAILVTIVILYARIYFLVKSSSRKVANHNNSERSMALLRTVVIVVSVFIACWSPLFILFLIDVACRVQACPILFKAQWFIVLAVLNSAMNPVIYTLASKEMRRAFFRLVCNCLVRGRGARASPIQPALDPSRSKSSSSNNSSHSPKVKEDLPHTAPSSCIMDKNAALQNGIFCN

S1P1 [2] = target: T2, S1P1 (Homo sapiens, UniProt P21453); test: S1P1 Binding Assay (33P-S1P ligand competition, membranes from CHO cells); parameters: expressed in transfected cells; host or cells: CHO cells; settings: membranes of CHO cells expressing human S1P1; 0.03 nM 33P-S1P; 60 min room temperature
Procedure: Membranes were prepared from CHO cells expressing human S1P1. Cells were dissociated in buffer containing 20 mM HEPES, pH 7.5, 50 mM NaCl, 2 mM EDTA and Protease Inhibitor cocktail (Roche), and disrupted on ice using the Polytron homogenizer. The homogenate was centrifuged at 20,000 rpm (48,000 g) and the supernatant was discarded. The membrane pellets were resuspended in buffer containing 50 mM HEPES, pH 7.5, 100 mM NaCl, 1 mM MgCl2, 2 mM EDTA and stored in aliquots at −80° C. after protein concentration determination.
Membranes (2 μg/well) and 0.03 nM final concentration of ^33P-S1P ligand (1 mCi/ml, American Radiolabeled Chemicals) were added to the compound plates. Binding was performed for 60 min at room temperature, terminated by collecting the membranes onto GF/B filter plates, and radioactivity was measured by TOPCOUNT®. The competition data of the test compounds over a range of concentrations was plotted as percentage inhibition of radioligand specific binding. The IC50 is defined as the concentration of competing ligand needed to reduce specific binding by 50%.
Compounds of the present invention and Comparative Compound A were tested in the S1P1 binding assay described hereinabove and the results rounded to two digits, shown in Table A were obtained. In some instances, the value is an average of multiple experiments where N is the number of experiments conducted that provided satisfactory dose response curves. When more than one batch of an example was tested, the value presented is from the batch which allowed a comparison of GTPγS S1P1 and GTPγS S1P3 in Method A (Data shown in Table B). Data was not averaged across different batches of an example compound.

S1P1 [3] = target: T2, S1P1; test: Method A: Receptor [35S] GTPγS Binding Assay, membranes from S1P1/CHO cells; assay type: biochemical; parameters: expressed in transfected cells; host or cells: S1P1/CHO cells
Procedure: (§3) Compounds were loaded in a 384 Falcon v-bottom plate (0.5 μl/well in a 3-fold dilution). Membranes prepared from S1P1/CHO cells or EDG3-Ga15-bla HEK293T cells were added to the compound plate (40 μl/well, final protein […]) with MULTIDROP®. [^35S]GTP (1250 Ci/mmol, Perkin Elmer) was diluted in assay buffer: 20 mM HEPES, pH7.5, 10 mM MgCl2, 150 mM NaCl, 1 mM EGTA, 1 mM DTT, 10 μM GDP, 0.1% fatty acid free BSA, and 10 mg/ml Saponin to 0.4 nM. 40 μl of the [^35S] GTP solution was added to the compound plate with a final concentration of 0.2 nM. The reaction was kept at room temperature for 45 min. At the end of incubation, all the mixtures in the compound plate were transferred to a 384 well FB filter plates via GPCR robot system. The filter plate was washed with water 4 times by using the modified manifold Embla plate washer and dried at 60° C. for 45 min. 30 μl of MicroScint 20 scintillation fluid was added to each well for counting at Packard TOPCOUNT®. EC50 is defined as the agonist concentration that corresponds to 50% of the Ymax (maximal response) obtained for each individual compound tested.
as §2

S1P3 [4] = target: T1, S1P3; test: Method A: Receptor [35S] GTPγS Binding Assay, membranes from EDG3-Ga15-bla HEK293T cells; assay type: biochemical; parameters: expressed in transfected cells; host or cells: EDG3-Ga15-bla HEK293T cells; settings: EDG3-Ga15-bla HEK293T cell membranes
Procedure: as §3, §2
Target sequence in this assay (Q99500 whole entry): as the sequence (Q99500 whole entry, species assumed) above

circulating lymphocytes [5] = test: Blood Lymphocyte Reduction Assay (BLR) in mice; assay type: in vivo; settings: BALB/c mice, oral, vs vehicle group
Procedure: (§4) Lewis rats or BALB/c mice were dosed orally with test article (as a solution or suspension in the vehicle) or vehicle alone (polyethylene glycol 300, “PEG300”). Blood was drawn at 4 hr and 24 h by retro-orbital bleeding. Blood lymphocyte counts were determined on an ADVIA® 120 Hematology Analyzer (Siemens Healthcare Diagnostics). The results were measured as a reduction in the percentage of circulating lymphocytes as compared to the vehicle treated group at the 4 hr and 24 hr measurement. The results represent the average results of all animals within each treatment group (n=3-4).
(§5) Examples 1 and 2 were tested in the Blood Lymphocyte Reduction assay (BLR) described hereinabove and the results are shown in Table D for rats and Table E for mice.

circulating lymphocytes [6] = test: Blood Lymphocyte Reduction Assay (BLR) in rats; assay type: in vivo; settings: Lewis rats, oral, vs vehicle group
Procedure: as §4, §5

S1P1 [7] = target: T2, S1P1; test: Method B: Receptor [35S] GTPγS SPA Binding Assay, membranes from S1P1 transfected CHO cells; assay type: biochemical; parameters: expressed in transfected cells; host or cells: S1P1/CHO cells
Procedure: as §1, §2

[8] = clinical studies, first 24 hours of treatment; cited from earlier work
circulating lymphocytes [9] = settings: animals and humans; cited from earlier work

T2 sequence (P21453 whole entry): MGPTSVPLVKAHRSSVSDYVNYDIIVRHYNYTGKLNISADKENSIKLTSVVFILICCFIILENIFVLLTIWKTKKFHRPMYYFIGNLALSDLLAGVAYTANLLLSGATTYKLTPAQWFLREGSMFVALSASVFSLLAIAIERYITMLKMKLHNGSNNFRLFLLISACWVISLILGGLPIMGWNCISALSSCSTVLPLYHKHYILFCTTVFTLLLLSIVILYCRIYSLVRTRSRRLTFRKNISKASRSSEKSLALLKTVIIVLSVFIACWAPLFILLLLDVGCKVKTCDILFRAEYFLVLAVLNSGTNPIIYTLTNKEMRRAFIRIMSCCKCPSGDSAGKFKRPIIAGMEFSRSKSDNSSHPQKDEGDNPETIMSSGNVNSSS

EC50 (S1P3 [1]): 350 nM | IC50 (S1P1 [2]): 0.05 nM | EC50 (S1P1 [3]; Method A, S1P1/CHO cell membranes): 1.7 nM | GTPγS S1P3/S1P1 (Method A) (S1P1 [3]; ratio of GTPγS S1P3 EC50 to GTPγS S1P1 EC50, Method A): 2,100 | EC50 (S1P3 [4]): 3600 nM | EC50 (S1P1 [7]; Method B SPA, S1P1 transfected CHO cell membranes, NC = a satisfactory dose response curve was not obtained): 0.076 nM | GTPγS S1P3/S1P1 (Method B) (S1P1 [7]; ratio of GTPγS S1P3 EC50 to GTPγS S1P1 EC50, Method B): 4,600
Structure (SMILES): O=C(O)C1CN(Cc2ccc(-c3noc(-c4noc(-c5ccccc5)c4C(F)(F)F)n3)cc2)C1 [Example 2, 1-(4-(5-(5-Phenyl-4-(trifluoromethyl)isoxazol-3-yl)-1,2,4-oxadiazol-3-yl)benzyl)azetidine-3-carboxylic acid]
% reduction in lymphocytes at 4 hr. (circulating lymphocytes [5]; 0.001 mg/kg): −26% | % reduction in lymphocytes at 24 hr. (circulating lymphocytes [5]; 0.001 mg/kg): 17% | % reduction in lymphocytes at 4 hr. (circulating lymphocytes [5]; 0.01 mg/kg): −4% | % reduction in lymphocytes at 24 hr. (circulating lymphocytes [5]; 0.01 mg/kg): 15% | % reduction in lymphocytes at 4 hr. (circulating lymphocytes [5]; 0.1 mg/kg): 70% | % reduction in lymphocytes at 24 hr. (circulating lymphocytes [5]; 0.1 mg/kg): 62% | % reduction in lymphocytes at 4 hr. (circulating lymphocytes [5]; 1.0 mg/kg): 83% | % reduction in lymphocytes at 24 hr. (circulating lymphocytes [5]; 1.0 mg/kg): 84% | % reduction in lymphocytes at 4 hr. (circulating lymphocytes [6]; 0.03 mg/kg): 70% | % reduction in lymphocytes at 24 hr. (circulating lymphocytes [6]; 0.03 mg/kg): 56% | % reduction in lymphocytes at 4 hr. (circulating lymphocytes [6]; 0.3 mg/kg): 80% | % reduction in lymphocytes at 24 hr. (circulating lymphocytes [6]; 0.3 mg/kg): 79% | % reduction in lymphocytes at 4 hr. (circulating lymphocytes [6]; 1.0 mg/kg): 84% | % reduction in lymphocytes at 24 hr. (circulating lymphocytes [6]; 1.0 mg/kg): 85%

Structure (SMILES): CCCCCCCCc1ccc(CCC(N)(CO)CO)cc1 [FTY720]
bradycardia on treatment [8]: results in bradycardia | circulating lymphocytes (circulating lymphocytes [9]): reduce circulating lymphocytes
